The source of these data is patent US12398154B2, “Azaquinazoline pan-KRas inhibitors” (Mirati Therapeutics, Inc., priority 2020, dated 2025).

Test [1] concerns phospho-ERK in AsPC-1 (G12D) cells. As to the kind of experiment: Inhibition of KRas-mediated phosphorylation of ERK (in-cell western). It counts as cell-based. Particulars: Homo sapiens, ASPC1, 3 h, 3 hours compound, phospho-ERK normalized to GAPDH. A digest of the protocol:
(§1)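 IC50 came from 4-parameter dose-response fits of phospho-ERK (Thr202/Tyr204)/GAPDH signal, expressed as % DMSO control. Compounds were applied for 3 h at 0.5% DMSO before fixation, methanol permeabilization and antibody imaging by in-cell western.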

Test [2] concerns phospho-ERK in NCI-H460 (Q61H) cells. The description is as above. The class given is cell-based. Particulars: Homo sapiens, NCI-H460, 3 h, 3 hours compound, phospho-ERK normalized to GAPDH. A digest of the protocol:
as §1

For test [3], the system named is phospho-ERK in NCI-H727 (G12V) cells. The description is as above. It counts as cell-based. Particulars: Homo sapiens, NCI-H727, 3 h, 3 hours compound, phospho-ERK normalized to GAPDH. A digest of the protocol: as §1
A further test concerns the target KRas G12D (Homo sapiens, UniProt P01116, G12D). As to the kind of experiment: biochemical.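 Further: TR-FRET displacement binding assay on KRas, read after a one-hour incubation at room temperature, IC50 fitted from percent-of-control values.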
The next test concerns the target KRas G12V (Homo sapiens, UniProt P01116, G12V). Description: biochemical.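 Further: KRas binding measured by TR-FRET displacement at room temperature, IC50 fitted from percent of control values.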
Another test concerns the target KRas G12R (Homo sapiens, UniProt P01116, G12R). Description: biochemical.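 Further: TR-FRET displacement assay of compound binding to KRas, read after one hour at room temperature, potency from a four-parameter fit of percent-of-control values.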
In another test the test system is pERK in MKN1 cells. As to the kind of experiment: Inhibition of KRas phosphorylation of ERK (Cisbio HTRF pERK assay). The following applies: Homo sapiens, MKN-1, 3 h, read-out: Inhibition (HTRF IC50) of KRas-mediated Phosphorylation of ERK, MKN1.
The next test concerns pERK in PSN1 cells. Described as above. The following applies: Homo sapiens, PSN1, 3 h, read-out: Inhibition (HTRF IC50) of KRas-mediated Phosphorylation of ERK, PSN1.
Another test deals with pERK in ASPC1 cells. Described as above. The following applies: Homo sapiens, ASPC1, read-out: Inhibition (HTRF IC50) of KRas-mediated Phosphorylation of ERK, AsPC-1.
The next test concerns pERK in H727 cells. Described as above. Particulars: Homo sapiens, NCI-H727, read-out: Inhibition (HTRF IC50) of KRas-mediated Phosphorylation of ERK, H727.
The next test deals with pERK in H460 cells. The description is as above. The following applies: Homo sapiens, NCI-H460, read-out: Inhibition (HTRF IC50) of KRas-mediated Phosphorylation of ERK, H460.
A further test concerns pERK in HCT116 cells. The test is described as above. The following applies: Homo sapiens, HCT-116, read-out: Inhibition (HTRF IC50) of KRas-mediated Phosphorylation of ERK, HCT116.
The test system of a further test is pERK in H358 cells. The description is as above. Particulars: Homo sapiens, NCI-H358, read-out: Inhibition (HTRF IC50) of KRas-mediated Phosphorylation of ERK, H358.
The target in another test is KRas G12A (Homo sapiens, UniProt P01116, G12A). Description: biochemical.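 Further: binding to KRas measured by TR-FRET displacement after one hour at room temperature, IC50 from a four-parameter fit of percent-of-control values.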
Another test has as its target KRas G12S (Homo sapiens, UniProt P01116, G12S). Description: biochemical.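 Further: TR-FRET displacement binding to KRas, read after one hour incubation at room temperature, IC50 from four-parameter fit of percent of control.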
The target in the next test is KRas G12C (Homo sapiens, UniProt P01116, G12C). As to the kind of experiment: biochemical.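 Further: binding to KRas assessed by TR-FRET displacement after one hour incubation at room temperature, potency fitted from percent-of-control values.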
The next test deals with KRas WT (Homo sapiens, UniProt P01116). As to the kind of experiment: biochemical.
Chain of KRas WT (P01116 1-169 isoform P01116-2): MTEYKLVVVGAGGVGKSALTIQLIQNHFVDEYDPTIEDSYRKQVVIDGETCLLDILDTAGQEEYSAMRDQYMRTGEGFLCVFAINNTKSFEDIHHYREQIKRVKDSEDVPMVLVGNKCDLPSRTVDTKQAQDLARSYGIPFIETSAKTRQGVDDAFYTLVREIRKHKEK

Chain of KRas G12R (P01116 1-169 isoform P01116-2 G12R): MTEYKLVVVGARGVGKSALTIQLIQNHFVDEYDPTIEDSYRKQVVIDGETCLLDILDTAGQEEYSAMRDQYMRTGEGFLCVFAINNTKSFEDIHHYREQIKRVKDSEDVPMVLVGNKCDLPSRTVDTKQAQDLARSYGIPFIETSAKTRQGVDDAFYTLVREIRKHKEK
Chain of KRas G12D (P01116 1-169 isoform P01116-2 G12D): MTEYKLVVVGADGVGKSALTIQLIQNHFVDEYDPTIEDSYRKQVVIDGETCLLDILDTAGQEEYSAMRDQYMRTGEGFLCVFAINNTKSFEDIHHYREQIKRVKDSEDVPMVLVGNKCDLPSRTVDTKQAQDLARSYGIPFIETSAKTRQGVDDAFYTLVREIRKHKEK
Chain of KRas G12V (P01116 1-169 isoform P01116-2 G12V): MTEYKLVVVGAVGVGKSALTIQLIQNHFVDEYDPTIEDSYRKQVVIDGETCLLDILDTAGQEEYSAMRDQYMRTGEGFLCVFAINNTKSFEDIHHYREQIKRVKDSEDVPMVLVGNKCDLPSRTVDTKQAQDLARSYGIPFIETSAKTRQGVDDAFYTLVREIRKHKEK
Chain of KRas G12A (P01116 1-169 isoform P01116-2 G12A): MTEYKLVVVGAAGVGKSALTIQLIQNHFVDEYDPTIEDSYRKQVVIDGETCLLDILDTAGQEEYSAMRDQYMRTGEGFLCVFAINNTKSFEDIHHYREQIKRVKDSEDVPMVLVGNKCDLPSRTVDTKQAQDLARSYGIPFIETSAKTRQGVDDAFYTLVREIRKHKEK
Chain of KRas G12S (P01116 1-169 isoform P01116-2 G12S): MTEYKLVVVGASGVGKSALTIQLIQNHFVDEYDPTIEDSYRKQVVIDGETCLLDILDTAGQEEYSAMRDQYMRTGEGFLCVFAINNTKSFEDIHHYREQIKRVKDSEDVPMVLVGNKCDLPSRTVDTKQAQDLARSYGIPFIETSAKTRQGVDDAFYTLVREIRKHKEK
Chain of KRas G12C (P01116 1-169 isoform P01116-2 G12C): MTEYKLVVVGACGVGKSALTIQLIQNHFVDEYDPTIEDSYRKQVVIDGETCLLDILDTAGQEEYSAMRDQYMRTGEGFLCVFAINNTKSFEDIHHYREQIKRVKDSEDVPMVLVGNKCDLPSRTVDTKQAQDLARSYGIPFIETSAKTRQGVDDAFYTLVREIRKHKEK

As to `CCc1c(F)ccc2cc(O)cc(-c3ncc4c(N5CCC[C@]6(C5)NC(=O)NC6=O)nc(OC[C@@]56CCCN5C[C@H](F)C6)nc4c3F)c12` [Example 307, (R)-7-(7-(8-ethyl-7-fluoro-3-hydroxynaphthalen-1-yl)-8-fluoro-2-(((2R,7aS)-2-fluorohexahydro-1H-pyrrolizin-7a-yl)methoxy)pyrido[4,3-d]pyrimidin-4-yl)-1,3,7-triazaspiro[4.5]decane-2,4-dione], the IC50 in [1] is 117 nM; in test [2] it was 11 nM; in [3] it was 215 nM; against KRas G12D it was no more than 0.002 µM; against KRas G12V, no more than 0.002 µM; on KRas G12R, no more than 0.002 µM. The half-maximal inhibitory concentration (IC50) worked out at 0.005 µM in the test on pERK in MKN1 cells; 0.106 µM in the test on pERK in PSN1 cells; 0.058 µM in the test on pERK in ASPC1 cells; 0.085 µM in the test with pERK in H727 cells; 0.012 µM in the test on pERK in H460 cells; 0.033 µM in the test on pERK in HCT116 cells. For the same molecule, in the test with pERK in H358 cells, the half-inhibitory concentration (IC50) stood at 0.015 µM.

For `CCc1c(F)ccc2cc(O)cc(-c3ncc4c(N5CCCC6(C5)NC(=O)NC6=O)nc(OC[C@@]56CCCN5C[C@H](F)C6)nc4c3F)c12` (stereo partly drawn) [Example 196], the IC50 is 361 nM in [1]; 48 nM in [2]; 452 nM in [3]; no more than 0.002 µM at KRas G12D; no more than 0.002 µM at KRas G12V; no more than 0.002 µM against KRas G12R. Also, the IC50 came to 0.039 µM with pERK in MKN1 cells; 0.314 µM in the test on pERK in PSN1 cells; 0.097 µM in the test with pERK in ASPC1 cells; 0.167 µM in the test on pERK in H727 cells; 0.033 µM in the test with pERK in H460 cells; 0.114 µM in the test with pERK in HCT116 cells. Also, the IC50 in the test with pERK in H358 cells worked out at 0.031 µM.

As for `CCc1c(F)ccc2cc(O)cc(-c3ncc4c(N5CCCC(C#N)CC5)nc(OC[C@@]56CCCN5C[C@H](F)C6)nc4c3F)c12` (stereo partly drawn) [Example 173], the IC50 in test [1] came to 180 nM; in test [2], 145 nM; in test [3], 304 nM; against KRas G12D it was 0.006 µM; against KRas G12V, 0.004 µM; against KRas G12R, 0.006 µM. The half-inhibitory concentration (IC50) in the test with pERK in MKN1 cells came out at 0.042 µM; with pERK in PSN1 cells, 5.54 µM; in the test on pERK in ASPC1 cells, 0.056 µM; in the test with pERK in H727 cells it was 0.263 µM; in the test with pERK in H460 cells, 0.176 µM; in the test with pERK in HCT116 cells, 0.454 µM. Besides, the IC50 in the test with pERK in H358 cells was found to be 0.095 µM.

Take `CCc1c(F)ccc2cc(O)cc(-c3ncc4c(N5CCCCCCC5)nc(OC[C@@]56CCCN5C[C@H](F)C6)nc4c3F)c12` [Example 325, 4-(4-(azocan-1-yl)-8-fluoro-2-(((2R,7aS)-2-fluorohexahydro-1H-pyrrolizin-7a-yl)methoxy)pyrido[4,3-d]pyrimidin-7-yl)-5-ethyl-6-fluoronaphthalen-2-ol]: the IC50 against KRas G12D, at KRas G12V, against KRas G12R, at KRas G12A, on KRas G12S and against KRas G12C was no more than 0.002 µM in each case. Besides, the IC50 was no more than 0.002 µM against KRas WT; 0.017 µM with pERK in MKN1 cells; 5.15 µM with pERK in PSN1 cells; 0.049 µM in the test with pERK in ASPC1 cells; 0.045 µM in the test on pERK in H727 cells; 0.061 µM in the test on pERK in H460 cells. Besides, the IC50 in the test with pERK in HCT116 cells was found to be 0.056 µM; with pERK in H358 cells it was 0.164 µM.

Regarding `CCc1c(F)ccc2cc(O)cc(-c3ncc4c(N5CC(c6ccncc6)C5)nc(OC[C@@]56CCCN5C[C@H](F)C6)nc4c3F)c12` [Example 172, 5-ethyl-6-fluoro-4-(8-fluoro-2-(((2R,7aS)-2-fluorohexahydro-1H-pyrrolizin-7a-yl)methoxy)-4-(3-(pyridin-4-yl)azetidin-1-yl)pyrido[4,3-d]pyrimidin-7-yl)naphthalen-2-ol], the IC50 was 481 nM in test [1]; 79 nM in test [2]; 192 nM in test [3]; 0.009 µM against KRas G12D; no more than 0.002 µM against KRas G12V; no more than 0.002 µM on KRas G12R. In addition, the IC50 is 0.041 µM in the test on pERK in MKN1 cells; no less than 10 µM in the test on pERK in PSN1 cells; 0.096 µM with pERK in ASPC1 cells; 0.026 µM in the test on pERK in H727 cells; 0.032 µM with pERK in H460 cells; 0.17 µM with pERK in HCT116 cells. For the same molecule, the half-inhibitory concentration (IC50) in the test on pERK in H358 cells worked out at 0.006 µM.

For `O=S1(=O)NCC2(CCCN(c3nc(OC[C@@]45CCCN4C[C@H](F)C5)nc4c(F)c(-c5cc(O)cc6ccc(F)c(Br)c56)ncc34)C2)N1` (stereo partly drawn) [Example 411, 7-(7-(8-bromo-7-fluoro-3-hydroxynaphthalen-1-yl)-8-fluoro-2-(((2R,7aS)-2-fluorohexahydro-1H-pyrrolizin-7a-yl)methoxy)pyrido[4,3-d]pyrimidin-4-yl)-2-thia-1,3,7-triazaspiro[4.5]decane 2,2-dioxide], the IC50 against KRas G12D was no more than 0.002 µM; against KRas G12V, no more than 0.002 µM; against KRas G12R, no more than 0.002 µM; in the test on pERK in MKN1 cells, 0.04 µM; in the test with pERK in PSN1 cells it was 0.146 µM; in the test on pERK in ASPC1 cells, 0.063 µM. Further, the IC50 in the test on pERK in H727 cells was determined as 0.083 µM; in the test on pERK in H460 cells it was 0.048 µM; in the test on pERK in HCT116 cells, 0.092 µM; with pERK in H358 cells it was 0.009 µM.

Take `CCc1c(F)ccc2cc(O)cc(-c3ncc4c(N5CCC[C@@](C)(O)C5)nc(OCC(C)(C)CN(C)C)nc4c3F)c12` [Example 366, (R)-1-(2-(3-(dimethylamino)-2,2-dimethylpropoxy)-7-(8-ethyl-7-fluoro-3-hydroxynaphthalen-1-yl)-8-fluoropyrido[4,3-d]pyrimidin-4-yl)-3-methylpiperidin-3-ol]: the half-maximal inhibitory concentration (IC50) at KRas G12D turned out to be 0.003 µM; at KRas G12V, 0.003 µM; against KRas G12R it was 0.009 µM; with pERK in MKN1 cells, 0.011 µM; with pERK in PSN1 cells, 5.53 µM; with pERK in ASPC1 cells it was 0.06 µM. For the same molecule, the IC50 in the test on pERK in H727 cells turned out to be 0.185 µM; in the test with pERK in H460 cells, 0.108 µM; in the test with pERK in HCT116 cells, 0.321 µM; in the test with pERK in H358 cells, 0.061 µM.

As to `CCc1c(F)ccc2cc(O)cc(-c3ncc4c(N5CCCC6(CCSC6)C5)nc(OC[C@@]56CCCN5C[C@H](F)C6)nc4c3F)c12` (stereo partly drawn) [Example 476, 5-ethyl-6-fluoro-4-(8-fluoro-2-(((2R,7aS)-2-fluorotetrahydro-1H-pyrrolizin-7a(5H)-yl)methoxy)-4-(2-thia-7-azaspiro[4.5]decan-7-yl)pyrido[4,3-d]pyrimidin-7-yl)naphthalen-2-ol], the IC50 against KRas G12D is no more than 0.002 µM; at KRas G12V, no more than 0.002 µM; on KRas G12R, 0.004 µM; in the test with pERK in MKN1 cells, 0.014 µM; in the test with pERK in PSN1 cells, 3.59 µM; in the test on pERK in ASPC1 cells it was 0.036 µM. Further, the IC50 in the test with pERK in H727 cells is 0.148 µM; in the test with pERK in H460 cells it was 0.099 µM; in the test on pERK in HCT116 cells it was 0.275 µM; in the test with pERK in H358 cells, 0.035 µM.
